We go through 21 molecules from ChEMBL document CHEMBL4715889, “Novel amide and imidazole compounds as potent hematopoietic prostaglandin D synthase inhibitors” (Bioorg Med Chem Lett, 2021).

Values after ≈ are worked out from the molar mass of the structure shown.

For data set [1], the target named is T1, Hematopoietic prostaglandin D synthase (Homo sapiens, UniProt O60760). Kind of data set: Inhibition of HPGDS (unknown origin) by fluorescence polarization assay. In general terms: Fluorescence polarisation rises when a labelled molecule tumbles more slowly, as on binding a larger partner.
Data set [2] addresses T1, Hematopoietic prostaglandin D synthase. Kind of data set: Binding affinity to HPGDS (unknown origin) assessed as change in melting temperature by thermal shift assay.
The target is the same in data set [3]. Put plainly: Binding affinity to HPGDS (unknown origin) assessed as change in melting temperature in presence of GSH by thermal shift assay.
Data set [4] shares this target. Kind of data set: Inhibition of HPGDS (unknown origin) assessed as reduction in reduction in GSTase activity relative to control. Also on record: concentration or dose not given beside the values. The following applies: concentration not given here.
For data set [5] the target is unchanged. Kind of data set: Inhibition of HPGDS (unknown origin) assessed as reduction in reduction in LPS-induced PGD2 level by ELISA. For orientation: ELISA stands for enzyme-linked immunosorbent assay.
Data set [6] is described as follows: Aqueous solubility of compound at pH 7.4. It is filed as physicochemical.
Data set [7] in a line: Half life in human liver microsomes. It is filed as ADME, Microsome. On the technique in general: Microsomes from liver hold many membrane-bound enzymes, among them those of drug oxidation.
The target of data set [8] is T1, Hematopoietic prostaglandin D synthase. Put plainly: Competitive inhibition of human HPGDS using PGH2 as substrate.

The IC50 is the midpoint of a concentration-inhibition curve. In general, ΔTm refers to the change in melting temperature against a reference sample. As usually defined, the inhibition is the drop in the measured response relative to a control, in per cent. Broadly, the solubility is the concentration that dissolves in the medium under given conditions. What is called half-life is how long it takes for the measured level to halve. A word on the Ki: it is a dissociation constant, usually derived from enzyme kinetics or from competition with a known ligand.

T1 sequence (O60760 whole entry): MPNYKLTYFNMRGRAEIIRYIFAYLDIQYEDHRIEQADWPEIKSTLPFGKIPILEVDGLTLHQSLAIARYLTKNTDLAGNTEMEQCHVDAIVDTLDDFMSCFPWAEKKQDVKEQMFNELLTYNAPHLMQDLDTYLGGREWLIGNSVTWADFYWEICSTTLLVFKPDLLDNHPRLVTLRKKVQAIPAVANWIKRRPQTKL

`CC(C)(O)c1nc(-c2cccc(CNC(=O)c3cnc(-c4ccccn4)nc3)c2)no1`: the IC50 in data set [1] was found to be 7.48 nM; in data set [5], 11.6 nM. The results for the ΔTm in data set [2] and in data set [3] were 0.5 °C and 5.1 °C, respectively. Further, in data set [4], the inhibition was determined as 90.9%.

In the case of `O=C(NCc1ccccc1)c1ccc(-c2ccccc2)nc1`, the IC50 in data set [1] is 122 nM; in data set [5], 1230 nM. In addition, the shift in melting temperature (ΔTm) in data set [2] was determined as 0.3 °C; in data set [3] it was 3 °C. Further, in data set [4], the inhibition came to 40.4%.

For the molecule `c1ccc(-c2ncc(-c3cnc(-c4cccnc4)[nH]3)cn2)cc1`, the IC50 in data set [1] stood at 13.2 nM; in data set [5], 12.5 nM. In addition, the results for the shift in melting temperature (ΔTm) in data set [2] and in data set [3] were 4.9 °C and 5.7 °C, respectively. In addition, in data set [4], the inhibition is 65.1%.

On to `O=C(NCc1ccccc1)c1ccc(-c2ccccn2)nc1`, for which the IC50 in data set [1] worked out at 80.7 nM; in data set [5], 453 nM. For the same molecule, the ΔTm was found to be 0.1 °C in data set [2] and 2.8 °C in data set [3]. Also, the inhibition in data set [4] came out at 19.2%.

On to `c1ccc(-c2ncc(-c3ccc(-c4ccccn4)nc3)[nH]2)cc1`, for which the IC50 in data set [1] was 37.2 nM; in data set [5] it was 44.5 nM. In addition, the ΔTm in data set [2] was 4.2 °C; in data set [3] it was 5.2 °C. In addition, the inhibition in data set [4] is 73.5%.

Consider `c1ccc(-c2ncc(-c3cnc(-c4cccnc4)s3)cn2)cc1`, for which the IC50 is 257 nM in data set [1] and greater than 5000 nM in data set [5]. Moreover, the ΔTm in data set [2] was 2.1 °C; in data set [3], 2.2 °C. Moreover, the inhibition in data set [4] amounted to 29.5%.

In the case of `CC(C)(O)c1nc(-c2cccc(CNC(=O)c3ccc(-c4ccccn4)nc3)c2)no1`, the IC50 was 55.5 nM in data set [1] and 328 nM in data set [5]. Moreover, the ΔTm in data set [2] worked out at 0.1 °C; in data set [3], 2.8 °C. Moreover, the inhibition in data set [4] is 47.2%.

Take `CC(C)(O)c1nc(-c2cccc(-c3ncc(-c4cnc(-c5ccccn5)nc4)[nH]3)c2)no1`: in data set [1], it took 3200 nM to reach half-maximal inhibition (IC50). Besides, the ΔTm in data set [2] is 0.4 °C; in data set [3], 0.6 °C. Besides, the inhibition in data set [4] was 25.5%. The molecule also had a solubility in data set [6] of 17.5 µM (≈ 7.45 µg/mL).

`CC(C)(O)c1nc(-c2cccc(-c3ncc(-c4ccc(-c5ccccc5)nc4)[nH]3)c2)no1`: the figures for the IC50 in data set [1] and in data set [5] were 35.4 nM and 72 nM, respectively. For the same molecule, the ΔTm in data set [2] was 4.3 °C; in data set [3], 5.2 °C. Also, the inhibition in data set [4] came out at 83.5%.

Turning to `Cn1c(-c2cnc(-c3ccccc3)nc2)cnc1-c1ccccc1`, the IC50 was determined as 63.1 nM in data set [1] and 723 nM in data set [5]. In addition, the ΔTm in data set [2] came to 3.1 °C; in data set [3], 3.4 °C. Besides, the inhibition in data set [4] was 38.4%.

As for `O=C(NCc1ccccc1)c1cnc(-c2ccccn2)nc1`, the IC50 in data set [1] was 7.14 nM; in data set [5], 35.7 nM. The ΔTm turned out to be 0.2 °C in data set [2] and 4.2 °C in data set [3]. Besides, the inhibition in data set [4] stood at 71.3%.

For `c1ccc(-c2ccc(-c3cnc(-c4ccccc4)[nH]3)cn2)cc1`, the IC50 in data set [1] came out at 31.6 nM; in data set [5] it was 40.5 nM. The results for the ΔTm in data set [2] and in data set [3] were 3.2 °C and 4.4 °C, respectively. Also, the inhibition in data set [4] was determined as 85.2%.

On to `CC(C)(O)c1nc(-c2cccc(-c3ncc(-c4cnc(-c5ccccc5)nc4)[nH]3)c2)no1`, for which the results for the IC50 in data set [1] and in data set [5] were 5.88 nM and 20.7 nM, respectively. The ΔTm in data set [2] stood at 6.9 °C; in data set [3], 7.1 °C. Also, in data set [4], the inhibition was found to be 92.1%. The molecule further came in with a half-life in data set [7] greater than 1 h. The molecule also came in with a solubility in data set [6] of 3.3 µM (≈ 1.4 µg/mL).

For the molecule `CC(C)(O)c1nc(-c2cccc(CNC(=O)c3cnc(-c4ccccc4)nc3)c2)no1`, the IC50 in data set [1] is 7.18 nM; in data set [5], 9.86 nM. For the same molecule, the ΔTm was 0.4 °C in data set [2] and 4.95 °C in data set [3]. In addition, the inhibition in data set [4] amounted to 83.9%.

For `O=C(NCc1ccccc1)c1cnc(-c2ccccc2)nc1`, the IC50 in data set [1] worked out at 11.7 nM; in data set [5], 23.9 nM. In addition, the ΔTm in data set [2] is 0.4 °C; in data set [3], 4.6 °C. The inhibition in data set [4] was determined as 82.5%.

Consider `CC(C)(O)c1nc(-c2cccc(CNC(=O)c3ccc(-c4ccccc4)nc3)c2)no1`, for which the IC50 stood at 27.7 nM in data set [1] and 808 nM in data set [5]. Besides, the figures for the ΔTm in data set [2] and in data set [3] were 0.2 °C and 3.3 °C, respectively. In data set [4], the inhibition was found to be 62.4%.

Consider `c1ccc(-c2ncc(-c3cnc(-c4ccccc4)[nH]3)cn2)cc1`, for which the IC50 in data set [1] is 8.88 nM; in data set [5], 59 nM. Also, the ΔTm in data set [2] came out at 3.6 °C; in data set [3], 3.8 °C. For the same molecule, the inhibition in data set [4] was determined as 94.5%.

On to `CC(C)(O)c1nc(-c2cccc(-c3ncc(-c4ccc(-c5ccccn5)nc4)[nH]3)c2)no1`, for which the IC50 was found to be 78.6 nM in data set [1] and 23.4 nM in data set [5]. The ΔTm is 4.8 °C in data set [2] and 5.4 °C in data set [3]. In addition, the inhibition in data set [4] stood at 76.1%.

Turning to `c1ccc(C(OC2CCN(CCCc3nnn[nH]3)CC2)c2ccccc2)cc1`, the Ki in data set [8] turned out to be 5000 nM.

In the case of `Cc1nc(-c2ccccc2)[nH]c1-c1cnc(-c2ccccc2)nc1`, the 50% inhibitory concentration (IC50) in data set [1] stood at 30.8 nM; in data set [5], 3740 nM. For the same molecule, the shift in melting temperature (ΔTm) in data set [2] turned out to be 4.3 °C; in data set [3], 4.5 °C. The inhibition in data set [4] amounted to 81.5%.

Regarding `c1ccc(-c2ncc(-c3cnc(-c4ccccn4)nc3)[nH]2)cc1`, the values for the IC50 in data set [1] and in data set [5] were 1770 nM and 5060 nM, respectively. For the same molecule, the ΔTm was determined as 0.2 °C in data set [2] and 0.6 °C in data set [3]. The inhibition in data set [4] was determined as 18.2%.
